# Laboratory results as given in US4803303A, “N-substituted pseudo-aminosugars, their production and use” (Takeda Chemical Industries, Ltd., priority 1981, dated 1989).
# Structures can show the parent of a compound that is named as a salt.
# Target: maltase (from porcine intestinal mucosa)
# Experiment: inhibitory activity against maltase prepared from porcine intestinal mucosa (substrate maltose)
# Assay type: biochemical
# Details: given in the examples; read-out: IC50 (maltase)
# Description: (§1) The inhibitory activities of the compounds of this invention against α-glucosidase (yeast, type I, produced by Sigma Chemical Co. the United States of America) as well as maltase and saccharase prepared from porcine intestinal mucosa (prepared in accordance with the procedure as described by B. Borgstro m and A. Dahlgvist in Acta Chem. Scand.; 12, 1997-2006, (1958)), when maltose and sucrose are used as a substrate, are determined by adding to 0.25 ml of a solution of an enzyme prepared by diluting suitably with 0.02M phosphate buffer (pH 6.8) 0.5 ml of a solution of an inhibitory substance to be tested in the same buffer and 0.25 ml of 0.05M maltose or 0.05M sucrose as the substrate in the same buffer, allowing the mixture to react at 37° C. for 10 minutes, then adding 3 ml of Glucose B-Test Reagent (a glucose oxidase reagent for measurement of glucose, produced by Wako Pure Chemical Co., Japan), further warming the mixture at 37° C. for 20 minutes, and measuring the absorbance of the reaction solution at 505 nm. […]
row,SMILES,IC50 [µM]
1,"OC[C@@]1(O)C[C@H](NC2CCCC2O)[C@H](O)[C@@H](O)[C@@H]1O (single isomer, unassigned) [Example 38 Isomer showing [α]D^24-16.2°, N-(2-hydroxycyclopentyl)valiolamine]",0.058
2,"OC[C@@]1(O)C[C@H](NC2CCCCC2)[C@H](O)[C@@H](O)[C@@H]1O [Example 37, N-cyclohexylvaliolamine]",0.41

# Results, then the compound that gave them:
row,IC50 [µM],SMILES
1,3.4,"OC[C@H]1C[C@H](NCC(O)COc2ccccc2)[C@H](O)[C@@H](O)[C@@H]1O (some centres unmarked) [Example 18, N-(2-hydroxy-3-phenoxypropyl)validamine]"
2,0.59,"OCC(N[C@H]1C[C@H](CO)[C@@H](O)[C@H](O)[C@H]1O)[C@@H](O)[C@H](O)[C@H](O)CO (stereo partly drawn) [Example 19, N-(D-arabino-2,3,4,5-tetrahydroxy-1-hydroxymethylpentyl)validamine]"
3,0.043,"CC(C)(C)c1cc(CN[C@H]2C[C@](O)(CO)[C@@H](O)[C@H](O)[C@H]2O)cc(C(C)(C)C)c1O [Example 40, N-(3,5,-di-tert-butyl-4-hydroxybenzyl)valiolamine]"
4,0.063,"COc1ccccc1C(O)CN[C@H]1C[C@](O)(CO)[C@@H](O)[C@H](O)[C@H]1O (stereo partly drawn) [Example 41, N-(β-hydroxy-2-methoxyphenetyl)valiolamine]"
5,4.5,OCC(N[C@H]1C[C@H](CO)[C@@H](O)[C@H](O)[C@H]1O)c1ccccc1 (stereo partly drawn) [N-[α-(hydroxymethyl)benzyl]validamine]

# Same assay, conditions: read-out: The concentrations of 50% inhibition against maltase (substrate:maltose) IC50; Table 1; porcine intestinal mucosa maltase, substrate maltose, pH 6.8, 37° C.
row,SMILES,IC50 [µM]
1,CC(C)(C)c1cc(CN[C@H]2C[C@H](CO)[C@@H](O)[C@H](O)[C@H]2O)cc(C(C)(C)C)c1O,36
2,OCC(CO)N[C@H]1C[C@](O)(CO)[C@@H](O)[C@H](O)[C@H]1O [drawing 7],0.015
3,OC[C@@]1(O)C[C@H](NCCc2ccccc2)[C@H](O)[C@@H](O)[C@@H]1O [drawing 13],0.1

# The remaining lines, values ahead:
row,IC50 [µM],SMILES
1,0.05,"OC[C@@]1(O)C[C@H](NCC(O)c2ccccc2)[C@H](O)[C@@H](O)[C@@H]1O (single isomer, unassigned) [drawing 8]"
2,0.0058,"OC[C@@]1(O)C[C@H](NCC(O)c2ccccc2)[C@H](O)[C@@H](O)[C@@H]1O (single isomer, unassigned) [drawing 9]"
3,1.7,OC[C@H]1C[C@H](NCC(O)c2ccccc2)[C@H](O)[C@@H](O)[C@@H]1O (some centres unmarked) [drawing 10]
4,32,OCC(N[C@H]1C[C@H](CO)[C@@H](O)[C@H](O)[C@H]1O)C(O)c1ccccc1 (some centres unmarked) [drawing 11]
5,0.033,OC[C@@]1(O)C[C@H](NCC(O)COc2ccccc2)[C@H](O)[C@@H](O)[C@@H]1O (some centres unmarked) [drawing 12]
6,92,OC[C@H]1C[C@H](NCCCc2ccccc2)[C@H](O)[C@@H](O)[C@@H]1O [drawing 14]

# Target: T1, saccharase (from porcine intestinal mucosa) (Sus scrofa, UniProt P56729)
# T1 construct: maltase and saccharase prepared from porcine intestinal mucosa; from tissue; host or cells: porcine intestinal mucosa
# T1 sequence (P56729 with tags, fused parts or gaps limits assumed): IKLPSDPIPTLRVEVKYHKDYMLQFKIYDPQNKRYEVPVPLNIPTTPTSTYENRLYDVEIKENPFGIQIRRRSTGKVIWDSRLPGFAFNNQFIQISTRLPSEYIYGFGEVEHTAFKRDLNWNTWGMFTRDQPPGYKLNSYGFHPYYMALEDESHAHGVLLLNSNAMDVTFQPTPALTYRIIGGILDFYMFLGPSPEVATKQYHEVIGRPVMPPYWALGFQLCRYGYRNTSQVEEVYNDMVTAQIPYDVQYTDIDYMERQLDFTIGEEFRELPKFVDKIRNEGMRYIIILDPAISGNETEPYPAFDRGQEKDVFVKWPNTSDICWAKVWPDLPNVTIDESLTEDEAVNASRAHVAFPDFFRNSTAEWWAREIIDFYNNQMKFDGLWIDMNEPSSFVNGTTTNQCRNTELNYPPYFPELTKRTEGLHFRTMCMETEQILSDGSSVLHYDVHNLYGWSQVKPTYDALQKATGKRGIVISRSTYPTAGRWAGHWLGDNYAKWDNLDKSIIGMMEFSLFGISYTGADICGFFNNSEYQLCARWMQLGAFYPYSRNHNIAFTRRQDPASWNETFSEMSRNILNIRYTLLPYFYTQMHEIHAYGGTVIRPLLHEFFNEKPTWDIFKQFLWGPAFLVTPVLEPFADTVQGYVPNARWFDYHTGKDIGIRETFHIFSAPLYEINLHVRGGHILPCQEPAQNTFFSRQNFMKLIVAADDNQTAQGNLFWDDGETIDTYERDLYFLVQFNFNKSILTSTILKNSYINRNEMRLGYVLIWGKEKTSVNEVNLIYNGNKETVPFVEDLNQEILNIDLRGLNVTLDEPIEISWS
# T1 sequence (P56729 with tags, fused parts or gaps partner limits assumed): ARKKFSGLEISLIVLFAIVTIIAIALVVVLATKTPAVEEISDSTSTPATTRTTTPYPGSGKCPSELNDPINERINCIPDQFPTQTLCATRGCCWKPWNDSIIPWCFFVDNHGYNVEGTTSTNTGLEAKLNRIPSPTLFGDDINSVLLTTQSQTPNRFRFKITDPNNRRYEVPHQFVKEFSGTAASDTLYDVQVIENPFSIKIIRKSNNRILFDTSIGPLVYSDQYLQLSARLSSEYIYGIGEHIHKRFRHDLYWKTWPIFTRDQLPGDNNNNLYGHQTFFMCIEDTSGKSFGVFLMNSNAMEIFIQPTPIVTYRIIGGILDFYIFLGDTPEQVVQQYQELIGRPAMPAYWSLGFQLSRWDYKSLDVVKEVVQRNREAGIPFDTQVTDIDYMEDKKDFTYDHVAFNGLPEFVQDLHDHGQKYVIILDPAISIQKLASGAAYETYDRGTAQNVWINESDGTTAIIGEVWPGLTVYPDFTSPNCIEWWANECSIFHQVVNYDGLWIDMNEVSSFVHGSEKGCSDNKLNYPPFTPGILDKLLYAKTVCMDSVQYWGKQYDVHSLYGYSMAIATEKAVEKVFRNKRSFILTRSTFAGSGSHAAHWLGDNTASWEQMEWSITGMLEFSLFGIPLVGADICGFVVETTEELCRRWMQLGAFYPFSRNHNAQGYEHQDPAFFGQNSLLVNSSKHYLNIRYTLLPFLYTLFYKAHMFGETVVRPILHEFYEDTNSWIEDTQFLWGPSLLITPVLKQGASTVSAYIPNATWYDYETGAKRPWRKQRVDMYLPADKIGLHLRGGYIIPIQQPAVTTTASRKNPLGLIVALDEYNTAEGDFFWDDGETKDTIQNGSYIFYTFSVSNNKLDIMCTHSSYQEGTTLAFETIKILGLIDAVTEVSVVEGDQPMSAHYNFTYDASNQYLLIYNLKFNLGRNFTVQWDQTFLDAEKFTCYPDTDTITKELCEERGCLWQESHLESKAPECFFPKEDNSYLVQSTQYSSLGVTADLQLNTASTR
# Experiment: inhibitory activity against saccharase prepared from porcine intestinal mucosa (substrate sucrose)
# Assay type: biochemical
# Details: not given
# Description: as §1
row,SMILES,IC50 [µM]
1,OCC(CO)N[C@H]1C[C@](O)(CO)[C@@H](O)[C@H](O)[C@H]1O [drawing 17],0.0046

# Same assay, conditions: IC50 (saccharase), given in the examples
row,SMILES,IC50 [µM]
1,"OC[C@@]1(O)C[C@H](NC2CCCC2O)[C@H](O)[C@@H](O)[C@@H]1O (single isomer, unassigned) [Example 38 Isomer showing [α]D^24 +40.4°, N-(2-hydroxycyclopentyl)valiolamine]",0.13
2,"OC[C@@]1(O)C[C@H](NC2CCCC2O)[C@H](O)[C@@H](O)[C@@H]1O (single isomer, unassigned) [Example 38 Isomer showing [α]D^24-16.2°, N-(2-hydroxycyclopentyl)valiolamine]",0.024
3,"OC[C@H]1C[C@H](NC2CCCCC2O)[C@H](O)[C@@H](O)[C@@H]1O (some centres unmarked) [Example 20, N-(2-hydroxycyclohexyl)validamine]",0.096
4,"OC[C@H]1C[C@H](NC2CCCC2O)[C@H](O)[C@@H](O)[C@@H]1O (some centres unmarked) [Example 21, N-(2-hydroxycyclopentyl)validamine]",0.13
5,"OC[C@@]1(O)C[C@H](NC2CCCC2)[C@H](O)[C@@H](O)[C@@H]1O [Example 39, N-cyclopentylvaliolamine]",0.025

# Same assay, conditions: Table 2; porcine intestinal mucosa saccharase, substrate sucrose, pH 6.8, 37° C.
row,SMILES,IC50 [µM]
1,OC[C@@]1(O)C[C@H](NCC2CCCCC2)[C@H](O)[C@@H](O)[C@@H]1O,0.0093
2,CC(C)=CCC/C(C)=C/CN[C@H]1C[C@](O)(CO)[C@@H](O)[C@H](O)[C@H]1O,0.011
3,OCC(O)C(O)C(O)C(O)CN[C@H]1C[C@](O)(CO)[C@@H](O)[C@H](O)[C@H]1O (some centres unmarked),0.036
4,OC[C@@]1(O)C[C@H](NCc2ccc(Br)cc2)[C@H](O)[C@@H](O)[C@@H]1O,0.015
5,OC[C@@]1(O)C[C@H](NCCc2ccccc2)[C@H](O)[C@@H](O)[C@@H]1O [drawing 26],0.0023

# The next lines start with the values.
row,IC50 [µM],SMILES
1,0.015,OCC1(O)CC(NCc2ccco2)C(O)C(O)C1O (centres unmarked)
2,0.019,"OC[C@@]1(O)C[C@H](NCC(O)c2ccccc2)[C@H](O)[C@@H](O)[C@@H]1O (single isomer, unassigned) [drawing 18]"
3,0.0029,"OC[C@@]1(O)C[C@H](NCC(O)c2ccccc2)[C@H](O)[C@@H](O)[C@@H]1O (single isomer, unassigned) [drawing 19]"
4,0.0086,OC[C@@]1(O)C[C@H](NCC(O)COc2ccccc2)[C@H](O)[C@@H](O)[C@@H]1O (some centres unmarked) [drawing 20]
5,1.9,OC[C@H]1C[C@H](NCCCc2ccccc2)[C@H](O)[C@@H](O)[C@@H]1O [drawing 24]
6,0.022,OC[C@H]1C[C@H](NCC(O)c2ccccc2)[C@H](O)[C@@H](O)[C@@H]1O (some centres unmarked) [drawing 32]
7,0.26,OCC(N[C@H]1C[C@H](CO)[C@@H](O)[C@H](O)[C@H]1O)C(O)c1ccccc1 (some centres unmarked) [drawing 33]

# Same assay, conditions: given in the examples; read-out: IC50 (saccharase)
row,IC50 [µM],SMILES
1,0.79,"CC(C)=CCC/C(C)=C/CN[C@H]1C[C@H](CO)[C@@H](O)[C@H](O)[C@H]1O [Example 12, N-geranylvalidamine sulfate]"
2,0.079,"OCC(N[C@H]1C[C@H](CO)[C@@H](O)[C@H](O)[C@H]1O)[C@@H](O)[C@H](O)[C@@H](O)CO (stereo partly drawn) [Example 16, N-(L-xylo-2,3,4,5-tetrahydroxy-1-hydroxymethylpentyl)validamine]"
3,0.0068,"CC(C)(C)c1cc(CN[C@H]2C[C@](O)(CO)[C@@H](O)[C@H](O)[C@H]2O)cc(C(C)(C)C)c1O [Example 40, N-(3,5,-di-tert-butyl-4-hydroxybenzyl)valiolamine]"
4,0.0099,"COc1ccccc1C(O)CN[C@H]1C[C@](O)(CO)[C@@H](O)[C@H](O)[C@H]1O (stereo partly drawn) [Example 41, N-(β-hydroxy-2-methoxyphenetyl)valiolamine]"

row,SMILES,IC50 [µM]
1,"OC[C@@]1(O)C[C@H](NC2CCCCC2)[C@H](O)[C@@H](O)[C@@H]1O [Example 37, N-cyclohexylvaliolamine]",0.015

# Test system: α-glucoside hydrolase
# Experiment: α-glucosidase inhibitory activity (general statement)
# Assay type: biochemical
# Details: statement in words
row,SMILES,α-glucosidase inhibitory activity
1,N[C@H]1C[C@H](CO)[C@@H](O)[C@H](O)[C@H]1O [validamine],possesses a highly valuable action of suppressing the function of α-glucoside hydrolase
2,"N[C@H]1C[C@](O)(CO)[C@@H](O)[C@H](O)[C@H]1O [valiolamine, 1L(1S)-(1(OH),2,4,5/1,3)-5-amino-1-hydroxymethyl-1,2,3,4-cyclohexanetetrol]",α-glucosidase inhibitory activity
